Data: patent publication US20220305012A1, “L[…] TREATING SLEEP ISSUES” (EISAI R&D MANAGEMENT CO., LTD., priority 2019, published 2022)

Assays:
Assay type in all cases: in vivo, human
[1] = tested on: Subjects Having Insomnia Disorder; test: Example 2: return to sleep latency; settings: Zolpidem 6.25 mg
[2] = tested on: Subjects Having Insomnia Disorder; test: Example 2: subjective total sleep time (sTST), sleep diary; settings: Zolpidem ER 6.25 mg
Source text: As used herein, the term “subjective total sleep time”, abbreviated as “sTST”, means the derived minutes of sleep from sleep onset until the time the subject stopped trying to sleep for the night. In some embodiments, sTST is derived from data entered in a subject's Sleep Diary.
In some embodiments, sleep diaries were used to assess sleep parameters reported by subjects (i.e., subjective assessments) including subjective sleep onset latency (sSOL), subjective sleep efficiency (sSE), subjective WASO (sWASO), and subjective total sleep time (sTST). Subjects were instructed to complete the Sleep Diary developed based on the consensus Sleep Diary as described in Carney et al., “The consensus sleep diary: standardizing prospective sleep self-monitoring,” Sleep 2012; 35(2):287-302. In some embodiments, the Sleep Diary was used to assess the subject's global perception of quality of sleep on the previous night with the following question: “How would you rate the quality of your sleep last night?” Subjects rated the quality of their sleep on a scale from 1 to 9, with 1 being extremely poor and 9 being extremely good. In some embodiments, the Sleep Diary was used to assess subjective ratings of morning sleepiness with the following question: “How alert/sleepy do you feel this morning?” Subjects rated their sleepiness/alertness level on a Likert scale from 1 to 9, with 1 being extremely sleepy and 9 being extremely alert.
sTST—subjective total sleep time: derived minutes of sleep from sleep onset until the time the subject stopped trying to sleep for the night.
(§1) The treatment period lasted for 31 days. Subjects were randomized in a double-blind manner and received placebo, a tablet containing 5 mg of lemborexant, a tablet containing 10 mg of lemborexant, or a tablet containing 6.25 mg of zolpidem ER.
Once home, the subject ingested study drug each night prior to bedtime and completed their sleep diary within 1 hour of waketime.

[3] = tested on: Subjects Having Insomnia Disorder; test: Example 2: wake after sleep onset (WASO), polysomnography; settings: Zolpidem ER 6.25 mg
Method: (§2) In some embodiments, a sleep parameter is determined objectively using polysomnography. Polysomnography is the monitoring of multiple electrophysiological parameters during sleep and generally includes measurement of EEG activity, electro-oculographic activity and electromyographic activity, as well as other measurements.
WASO—wake after sleep onset: minutes of wake from the onset of persistent sleep until lights on.
as §1
(§3) Within 5 minutes of the subject's mean habitual bedtime, study drug was administered and an overnight polysomnogram recording was initiated. At completion of the recording the following morning (Day 2), postural stability and cognitive performance were assessed. On the Day 2 evening, subjects returned to the clinic and a blood sample was collected before administering study drug, and then study drug was administered within 5 minutes of the subject's mean habitual bedtime. Again, a polysomnogram recording was initiated. The next morning (Day 3), postural stability and cognitive performance were assessed. A blood sample was also collected.
(§4) On Day 29, subjects returned to the clinic. Study drug was administered within 5 minutes of the subject's mean habitual bedtime and a polysomnogram recording was conducted. On the following morning (Day 30), postural stability and cognitive performance were assessed. After 1.5 hours of waketime, subjects rated their morning sleepiness level.
(§5) On the evening of Day 30, subjects returned to the clinic. A pre-dose blood sample was collected and study drug was again administered within 5 minutes of the subject's mean habitual bedtime. A polysomnogram recording was initiated. The following morning (Day 31), postural stability and cognitive performance were assessed and a blood sample was obtained. The ISI, FSS, EQ-5D-3L and PGI-Insomnia were administered. Blood and urine samples were collected for routine safety assessment. An electrocardiogram was performed, and vital signs and weight were assessed. The eC-SSRS was then administered to the subject. At 1.5 hours after waketime, subjects rated their morning sleepiness level.
Another key secondary endpoint was to determine the change from baseline for mean wake after sleep onset on Days 29 and 30 after administration of 5 mg or 10 mg of lemborexant, compared to placebo.

[4] = tested on: Subjects Having Insomnia Disorder; test: Example 2: postural stability, body sway upon awakening in morning; settings: Zolpidem ER 6.25 mg
Source text: Subjects were provided with a sleep diary and trained on how to record entries. After subjects completed the sleep diary on 7 consecutive mornings, and provided that the subject was still eligible to participate in the study, they attended a second clinical meeting between 10 and 17 days before the randomization phase. The subject was then fitted with a polysomnogram and trained in how to complete the postural stability assessment and cognitive performance assessment battery. Subjects then underwent an 8-hour polysomnogram recording. Within 5 minutes of waking, the postural stability assessment and cognitive assessment battery were conducted on the subject.
as §3, §4, §5
An exemplary additional secondary endpoint is the change from baseline on the postural stability test of mean units of body sway on Days 2 and 3 after administration of 5 mg or 10 mg of lemborexant compared to zolpidem.

[5] = tested on: Subjects Having Insomnia Disorder; test: Example 2: wake after sleep onset in the second half of the night (WASO2H), polysomnography; settings: Zolpidem ER 6.25 mg
Method: as §2
WASO2H: wake after sleep onset in the second half of the night: minutes of wake during the interval from 240 minutes after lights off until lights on.
as §1, §3, §4, §5
Another key secondary endpoint was to determine the change from baseline for mean wake after sleep onset in the second half of the night on Days 29 and 30 after administration of 5 mg or 10 mg of lemborexant compared to administration of 6.25 mg of zolpidem ER.

Cc1ccc(-c2nc3ccc(C)cn3c2CC(=O)N(C)C)cc1 [Zolpidem ER, zolpidem, reference compound]
Return to Sleep Latency, LSM - Difference vs. Placebo [1]: -21.0 min | Return to Sleep Latency, Mean (SD) change from baseline [1]: -21.2 min | Return to Sleep Latency, Postdose [1]: 19.6 min | Subjective Total Sleep Time, Change from Study Baseline, Mean (SD) ([2]; First 7 Nights of Treatment): 56.99 (62.880) | Subjective Total Sleep Time, Mean (SD) ([2]; First 7 Nights of Treatment): 325.64 (81.845) | Subjective Total Sleep Time, Model-adjusted change from baseline ([2]; First 7 Nights of Treatment): 57.71 | Subjective Total Sleep Time, Change from Study Baseline, Mean (SD) ([2]; Last 7 Nights of Treatment): 71.01 (76.574) | Subjective Total Sleep Time, Mean (SD) ([2]; Last 7 Nights of Treatment): 340.20 (83.582) | Subjective Total Sleep Time, Model-adjusted change from baseline ([2]; Last 7 Nights of Treatment): 71.04 | Wake After Sleep Onset, Change from Study Baseline, Mean (SD) ([3]; Days 1/2): −44.36 (38.074) | Wake After Sleep Onset, Change from Study Baseline, Median ([3]; Days 1/2): −44.13 | Wake After Sleep Onset, Mean (SD) ([3]; Days 1/2): 69.92 (33.517) | Wake After Sleep Onset, Median ([3]; Days 1/2): 62.00 | Wake After Sleep Onset, Change from Study Baseline, Mean (SD) ([3]; Days 29/30): −36.50 (43.406) | Wake After Sleep Onset, Change from Study Baseline, Median ([3]; Days 29/30): −34.63 | Wake After Sleep Onset, Mean (SD) ([3]; Days 29/30): 77.71 (39.932) | Wake After Sleep Onset, Median ([3]; Days 29/30): 71.00 | Body Sway Upon Awakening in Morning, Change from Study Baseline, Mean (SD) ([4]; Days 2/3): 4.07 ⅓ degree angle of arc | Body Sway Upon Awakening in Morning, Change from Study Baseline, Median ([4]; Days 2/3): 2.50 ⅓ degree angle of arc | Body Sway Upon Awakening in Morning, Mean (SD) ([4]; Days 2/3): 29.86 ⅓ degree angle of arc | Body Sway Upon Awakening in Morning, Median ([4]; Days 2/3): 25.00 ⅓ degree angle of arc | Body Sway Upon Awakening in Morning, Change from Baseline, Mean (SD) ([4]; Days 30/31): 2.12 ⅓ degree angle of arc | Body Sway Upon Awakening in Morning, Change from Baseline, Median ([4]; Days 30/31): 2.50 ⅓ degree angle of arc | Body Sway Upon Awakening in Morning, Mean (SD) ([4]; Days 30/31): 27.65 ⅓ degree angle of arc | Body Sway Upon Awakening in Morning, Median ([4]; Days 30/31): 22.50 ⅓ degree angle of arc | Wake After Sleep Onset in the Second Half of the Night, Change from Study Baseline, Mean (SD) ([5]; Days 1/2): −24.64 (33.347) | Wake After Sleep Onset in the Second Half of the Night, Change from Study Baseline, Median ([5]; Days 1/2): −24.13 | Wake After Sleep Onset in the Second Half of the Night, Mean (SD) ([5]; Days 1/2): 53.30 (27.706) | Wake After Sleep Onset in the Second Half of the Night, Median ([5]; Days 1/2): 49.25 | Wake After Sleep Onset in the Second Half of the Night, Change from Study Baseline, Mean (SD) ([5]; Days 29/30): −21.42 (36.257) | Wake After Sleep Onset in the Second Half of the Night, Change from Study Baseline, Median ([5]; Days 29/30): −19.13 | Wake After Sleep Onset in the Second Half of the Night, Mean (SD) ([5]; Days 29/30): 56.74 (31.112) | Wake After Sleep Onset in the Second Half of the Night, Median ([5]; Days 29/30): 51.25
